Paper PMC8594567 (Journal of the American Chemical Society, 2021)
Read-outs that look alike come from different tables or passages of the source. Values belong to the compound of their own block, whether it stands above or below them.

How the values were obtained:
CYP3A5 G480L = CYP3A5 G480L (Homo sapiens, UniProt P20815, G480L); assay: Cell-based P450-Glo CYP3A mutant inhibition assay, CYP3A5 G480L; conditions: G480L substitution; 293T/17 cells
CYP3A5 G480S = CYP3A5 G480S (Homo sapiens, UniProt P20815, G480S); assay: Cell-based P450-Glo CYP3A mutant inhibition assay, CYP3A5 G480S; conditions: G480S substitution; 293T/17 cells
CYP3A5^G480A = CYP3A5^G480A (Homo sapiens, UniProt P20815, G480A); assay: Cell-based P450-Glo CYP3A mutant inhibition assay, CYP3A5 G480A; conditions: 293T/17 cells
CYP3A5^G214A/G480A = CYP3A5^G214A/G480A (Homo sapiens, UniProt P20815, G214A/G480A); assay: Cell-based P450-Glo CYP3A mutant inhibition assay, CYP3A5 G214A/G480A; conditions: 0.08–20 μM CBZ; 293T/17 cells
CYP3A4^WT = CYP3A4^WT (Homo sapiens, UniProt P08684); assay: Cell-based P450-Glo CYP3A mutant inhibition assay, CYP3A4 WT; conditions: 293T/17 cells; also prior data ref 30
CYP3A4^D214G = CYP3A4^D214G (Homo sapiens, UniProt P08684, D214G); assay: Cell-based P450-Glo CYP3A mutant inhibition assay, CYP3A4 D214G; conditions: 293T/17 cells
CYP3A4^F108L = CYP3A4^F108L (Homo sapiens, UniProt P08684, F108L); assay: Cell-based P450-Glo CYP3A mutant inhibition assay, CYP3A4 F108L; conditions: relative to CYP3A4^WT; 293T/17 cells
CYP3A5 [1] = molecular target: T1, CYP3A5 (Homo sapiens, UniProt P20815); assay: Time-dependent inhibition assay; assay type: biochemical; conditions: pre-incubation 0 or 30 mins at room temperature
purified human CYP3A5 [2] = molecular target: T2, purified human CYP3A5 (Homo sapiens, UniProt P20815); conditions: 10 min
CYP3A4 = CYP3A4 (Homo sapiens, UniProt P08684); assay: UV-Vis spectroscopy binding assay, CYP3A4; conditions: for increase in Ks on removal of the region B group: CYP3A4, region B-deleted analog vs parent
CYP3A5 [3] = molecular target: T1, CYP3A5; assay: UV-Vis spectroscopy binding assay, CYP3A5
purified human CYP3A5 [4] = molecular target: T2, purified human CYP3A5; assay: Biochemical P450-Glo CYP3A inhibition assay, CYP3A5
purified human CYP3A4 [5] = molecular target: T3, purified human CYP3A4 (Homo sapiens, UniProt P08684); assay: Biochemical P450-Glo CYP3A inhibition assay, CYP3A4
CYP3A5 [6] = molecular target: T1, CYP3A5; assay: in vitro
purified human CYP3A4 [7] = molecular target: T3, purified human CYP3A4; conditions: 10 min

Structure (SMILES): C[C@H]1C[C@H]2[C@@H]3CCC4=CC(=O)C=C[C@]4(C)[C@@]3(F)[C@@H](O)C[C@]2(C)[C@@]1(O)C(=O)CCl [clobetasol, Clobetasol]
Ks relative to the counterpart with region B group (CYP3A5 [3]; dexamethasone acetate vs difluprednate, clobetasol vs CBZ, Ks higher): > 100 fold
CYP3A5 inhibition (purified human CYP3A5 [4]; P450-Glo biochemical assay): failed to inhibit CYP3A5 even at the highest concentration tested
IC50 (purified human CYP3A4 [5]; purified full-length CYP3A4, luciferin-IPA): 13 ± 4 µM

Structure (SMILES): CCCC(=O)O[C@]1(C(=O)CCl)[C@@H](C)C[C@H]2[C@@H]3CCC4=CC(=O)C=C[C@]4(C)[C@@]3(F)C(=O)C[C@@]21C [clobetasone butyrate, Clobetasone butyrate]
Ks for CYP3A4 compared with CBZ (CYP3A4): maintained similar Ks value
weaker CYP3A5 inhibition than CBZ (IC50 ratio) (purified human CYP3A5 [4]; IC50 of analog relative to CBZ): approximately 5 fold
CYP3A4 inhibition (purified human CYP3A4 [5]; P450-Glo biochemical assay): slightly enhanced CYP3A4 inhibition

Structure (SMILES): C[C@@H]1C[C@H]2[C@@H]3CCC4=CC(=O)C=C[C@]4(C)[C@@]3(F)[C@@H](O)C[C@]2(C)[C@H]1C(=O)CO [desoximetasone]
CYP3A5 inhibition (purified human CYP3A5 [2]): no or weaker CYP3A5 inhibition than that of CBZ

Structure (SMILES): CC(=O)OCC(=O)[C@@]1(OC(C)=O)[C@@H](C)C[C@H]2[C@@H]3C[C@H](F)C4=CC(=O)C=C[C@]4(C)[C@@]3(F)[C@@H](O)C[C@@]21C [diflorasone]
CYP3A5 inhibition (purified human CYP3A5 [2]): no or weaker CYP3A5 inhibition than that of CBZ
CYP3A4 inhibition (purified human CYP3A4 [7]): still capable of inhibiting CYP3A4 at high concentrations

Structure (SMILES): CCOC(=O)O[C@]1(C(=O)COC(=O)CC)CC[C@H]2[C@@H]3CCC4=CC(=O)C=C[C@]4(C)[C@H]3[C@@H](O)C[C@@]21C [prednicarbate, Prednicarbate]
CYP3A5 inhibition (purified human CYP3A5 [2]): consistently weaker CYP3A5 inhibition

Further lines, with some results ahead:

reduction in potency vs WT (CYP3A5 G480L): at least 20 fold
reduction in potency vs WT (CYP3A5 G480S): at least 20 fold
inhibition compared with CYP3A5^WT (CYP3A5^G480A): to the same extent as was CYP3A5^WT
effect on enzyme activity (CYP3A5^G214A/G480A): weakly activated
inhibition compared with CYP3A4^WT (CYP3A4^D214G): identically
time-dependent inhibition of CYP3A5 (CYP3A5 [1]): not time-dependent inhibitors of CYP3A5
CYP3A5 inhibition (purified human CYP3A5 [2]): potent and selective inhibitor of CYP3A5
increase in Ks on removal of the region B group (CYP3A4): approximately 20 fold
Structure (SMILES): CCC(=O)O[C@]1(C(=O)CCl)[C@@H](C)C[C@H]2[C@@H]3CCC4=CC(=O)C=C[C@]4(C)[C@@]3(F)[C@@H](O)C[C@@]21C [CBZ, Clobetasol propionate]
CYP3A4 inhibition (CYP3A4^WT): can be inhibited at high CBZ concentrations
effect of the F108L substitution on inhibitory potency (CYP3A4^F108L): substantially weakened the inhibitory potency

CYP3A5 inhibition (purified human CYP3A5 [2]): consistently weaker CYP3A5 inhibition
Structure (SMILES): CCC(=O)OCC(=O)[C@@]1(OC(=O)CC)[C@@H](C)C[C@H]2[C@@H]3CCC4=CC(=O)C=C[C@]4(C)[C@@]3(F)[C@@H](O)C[C@@]21C [betamethasone dipropionate]

Ks relative to the counterpart with region B group (CYP3A5 [3]; human, pH 7.4): > 100 fold
inhibition at 10 min, 300 µM (CYP3A5 [6]): 35%
Structure (SMILES): CC(=O)OCC(=O)[C@@]1(O)[C@H](C)C[C@H]2[C@@H]3CCC4=CC(=O)C=C[C@]4(C)[C@@]3(F)[C@@H](O)C[C@@]21C [dexamethasone acetate]

increase in Ks on removal of the region B group (CYP3A5 [3]; human, pH 7.4): > 100 fold
weakening of CYP3A4 inhibition on deleting the region B group (purified human CYP3A4 [7]): approximately 10 fold
increase in Ks on removal of the region B group (CYP3A4): 3 fold
Structure (SMILES): CCCC(=O)O[C@]1(C(=O)COC(C)=O)CC[C@H]2[C@@H]3C[C@H](F)C4=CC(=O)C=C[C@]4(C)[C@@]3(F)[C@@H](O)C[C@@]21C [difluprednate]
CYP3A5 inhibition (purified human CYP3A5 [2]): strongest and most selective CYP3A5 inhibitor among all compounds we tested
